Read-outs that look alike come from different tables or passages of the source.
Assays:
[1] = ingredient added at 1 mass % based on total mass of paint
Procedure: Zinc chloride, zinc formate and zinc acetate were added to the acrylic paint formulation.

Alternaria alternata = test: Minimum Inhibitory Concentration (MIC) by spiral plater / spiral gradient endpoint against Alternaria alternata; format: cell-based
Procedure: (§1) Synergistic Index=Qa/QA+Qb/QB [Equation No. 1] • where Qa=the quantity of component A used in a binary mixture that gives the desired effect • QA=the quantity of component A which when used alone gives the desired effect • Qb=the quantity of component B used in a binary mixture that gives the desired effect • QB=the quantity of component B which when used alone gives the desired effect
(§2) Minimum Inhibitory Concentration (“MIC”) for each of the antimicrobial compositions was determined against a test microbe, which in this case was a spore suspension of the fungus Alternaria alternata, with the aid of an Autoplate 4000 spiral plater that is commercially available from Spiral Biotech, Inc., Norwood, Mass., and its accompanying spiral gradient endpoint software (hereinafter referred to as “the SGE software”). The spiral plater automates the normal serial dilution method for determining MICs. Although the details of the SGE software are held confidentially by Spiral Biotech, Inc., they are believed to consistent with the principles set forth in “Measurement of MICs of antibacterial agents by spiral gradient endpoint compared with conventional dilution method” J. H. Paton, H. A. Holt, and M. J. Bywater—Int. J. Exp. Clin. Chemother, 1990.
Spore suspensions for the test microbe were prepared by growing Alternaria alternata on a Difco malt agar slant in an incubator for 1 week at 28° C. Spores were loosened by adding a small amount of buffer solution at pH 7.0 and scraping with a sterile nichrome wire loop. This process was repeated twice. The buffer solution included phosphate buffer and magnesium chloride, and was obtained commercially from Thomas Scientific Company, as Lot #023-0703.
Loosened spores were removed from the slant by aseptically pouring them into a sterile bottle containing 30 ml of the buffer solution and a volume of approximately 40 ml of 6 mm diameter borosilicate glass beads. The bead bottle was shaken to disperse the spores and adjusted to a final liquid volume of 50 ml. For use as a test inoculum, spore density was adjusted in distilled water blanks to that of a 0.5 McFarland nephelometer standard.
(§3) The spiral plater automatically applied 54.3 micro-liters of each antimicrobial composition of interest to the surface of 150 millimeter malt agar plates using an exponential application gradient. The concentration of the antimicrobial concentration was greatest near the center of the Petri plates and decreased toward the edges. Antimicrobial composition gradients were allowed to air dry at room temperature for 1 to 4 hours at 23° C. before inoculation with test microbe. Spiral gradient plates were inoculated by streaking with cotton swabs that had been soaked in test microbe spore suspension. Streaks were applied in a radial pattern, using a paper template generated by the SGE software to guide the application. Eight radii were inoculated per Petri plate. Each radius is considered as one replicated observation.
(§4) Inoculated spiral gradient plates were incubated for 48 hours in an incubator at 28° C. Visible growth of the test microbe developed along the radial streaks and ended where the concentration of the antimicrobial composition was sufficient to prevent growth. This growth endpoint value (expressed in mm as measured from center point of the Petri plate) was used to calculate MIC for the mixture, expressed as parts per million.
Utilizing the procedure described above in Example 1, Minimum Inhibitory Concentration (“MIC”) for each of the antimicrobial compositions was determined against a test microbe, which in this case was a spore suspension of the […] Alternaria alternata.

Klebsiella pneumoniae = test: Minimum Inhibitory Concentration (MIC) by spiral plater / spiral gradient endpoint against Klebsiella pneumoniae; format: cell-based; details: quantity of calcium ethylhexanoate used alone that gives the desired effect
Procedure: as §1
(§5) Minimum Inhibitory Concentration (“MIC”) for each of the antimicrobial compositions was determined against a test microbe, which in this case was a spore suspension of the fungus Alternaria alternata, with the aid of an Autoplate 4000 spiral plater that is commercially available from Spiral Biotech, Inc., Norwood, Mass., and its accompanying spiral gradient endpoint software (hereinafter referred to as “the SGE software”). […]
(§6) Inoculated spiral gradient plates were incubated for 48 hours in an incubator at 28° C. […] This growth endpoint value (expressed in mm as measured from center point of the Petri plate) was used to calculate MIC for the mixture, expressed as parts per million.
Utilizing the procedure described above in Example 1, Minimum Inhibitory Concentration (“MIC”) for each of the antimicrobial compositions was determined against a test microbe, which in this case was a spore suspension of the bacteria Klebsiella pneumoniae. […]

Candida albicans = test: Minimum Inhibitory Concentration (MIC) by spiral plater / spiral gradient endpoint against Candida albicans; format: cell-based; details: for MIC (ppm) for Candida albicans: 3 1:3, 4,5 1:1, 6 3:1, 7,8 1:0; for QA: used for SI
Procedure: as §1, §2, §3, §4
Utilizing the procedure described above in Example, Minimum Inhibitory Concentration (“MIC”) for each of the antimicrobial compositions was determined against a test microbe, which in this case was a spore suspension of the yeast Candida albicans., as described above in Example 1. Several antimicrobial compositions containing calcium gluconate, BIT, or both in water were investigated, as shown below in Table 3
Utilizing the procedure described above in Example 1, Minimum Inhibitory Concentration (“MIC”) for each of the antimicrobial compositions was determined against a test microbe, which in this case was a spore suspension of the yeast Candida albicans. Several antimicrobial compositions containing calcium glycerate, BIT, or both in water were investigated, as shown below in Table 11.
Utilizing the procedure described above in Example 1, Minimum Inhibitory Concentration (“MIC”) for antimicrobial compositions was determined against a test microbe, which in this case was a spore suspension of the yeast Candida albicans. Several antimicrobial compositions containing calcium glycerate, BIT, or both in water were investigated, as shown below in Table 23.
Utilizing the procedure described above in Example 1, Minimum Inhibitory Concentration (“MIC”) for each of the antimicrobial compositions was determined against a test microbe, which in this case was a spore suspension of the fungus Candida Albicans.

Saccharomyces cervisiae = test: Minimum Inhibitory Concentration (MIC) by spiral plater / spiral gradient endpoint against Saccharomyces cervisiae; format: cell-based; details: aqueous calcium gluconate-BIT compositions; MassCG:MassBIT: Trials 1,2 0:1; 3 1:3; 4,5 1:1; 6 3:1; 7,8 1:0
Procedure: as §1, §5, §6
Utilizing the procedure described above in Example 1, Minimum Inhibitory Concentration (“MIC”) for each of the antimicrobial compositions was determined against a test microbe, which in this case was a spore suspension of the yeast Saccharomyces cervisiae. […]

Pseudomonas aeruginosa = test: Minimum Inhibitory Concentration (MIC) by spiral plater / spiral gradient endpoint against Pseudomonas aeruginosa; format: cell-based; details: 3 1:3, 4,5 1:1, 6 3:1, 7,8 1:0
Procedure: as §1, §2, §3, §4
Utilizing the procedure described above in Example 1, Minimum Inhibitory Concentration (“MIC”) for each of the antimicrobial compositions was determined against a test microbe, which in this case was a spore suspension of the bacterium Pseudomonas aeruginosa. Several antimicrobial compositions containing calcium gluconate, BIT, or both in water were investigated, as shown below in Table 7.
Utilizing the procedure described above in Example 1, Minimum Inhibitory Concentration (“MIC”) for each of the antimicrobial compositions was determined against a test microbe, which in this case was a […] Pseudomonas aeruginosa. Several antimicrobial compositions containing calcium glycerate, BIT, or both in water were investigated, as shown below in Table 13.
Utilizing the procedure described above in Example 1, Minimum Inhibitory Concentration (“MIC”) of certain antimicrobial compositions was determined against a test microbe, which in this case was a spore suspension of the bacterium Pseudomonas aeruginosa. Several antimicrobial compositions containing zinc gluconate, BIT, or both in water were investigated, as shown below in Table 19.

Escherichia coli = test: Minimum Inhibitory Concentration (MIC) by spiral plater / spiral gradient endpoint against Escherichia coli; format: cell-based; details: MIC of zinc gluconate alone for Escherichia coli (average of Trials 7, 8), used for SI
Procedure: as §1, §2
The spiral plater automatically applied 54.3 micro-liters of each antimicrobial composition of interest to the surface of 150 millimeter malt agar plates using an exponential application gradient. The concentration of the antimicrobial concentration was greatest near the center of the Petri plates and decreased toward the edges. […]
as §6
Utilizing the experimental procedure described above in Example 1, the MIC against Escherichia coli of several antibacterial compositions containing zinc gluconate, BIT, or both in water were determined.

[2] = tested on: mixed bacterial inoculum: Pseudomonas aeruginosa (ATCC #10145), Escherichia coli (ATCC #11229), Enterobacter aerogenes (ATCC #13048), Alcaligenes faecalis …; test: Two-part bacterial challenge of acrylic latex paint samples with a mixed inoculum (performance ratings); format: cell-based; parameters: key to Performance Ratings Week 1, 1 Day / Performance Ratings Week 1, 2 Days / Performance Ratings Week 1, 8 Days / Performance Ratings Week 2, 1 Day / Performance Ratings Week 2, 2 Days / Performance Ratings Week 2, 8 Days: 0: No bacterial growth; 1: Trace of bacterial growth; 2: Light bacterial growth; 3: Moderate bacterial growth; 4: Heavy bacterial growth
Procedure: In order to quantify the antibacterial effectiveness of an antimicrobial composition of interest, samples were prepared by adding various amounts of the antimicrobial composition to identical volumes of a paint that contained no preservatives and was not contaminated by bacteria. In this case, the test sample was a white, aqueous-based, acrylic latex paint. The paint included an acrylic resin, and conventional additives such as surfactant, thickener, defoamer, and titanium oxide.
The samples of the paint were subjected to a two-part challenge procedure and the sample that provided acceptable anti-bacterial protection with the lowest concentration of the antimicrobial composition was identified. Each part of the anti-bacterial challenge consisted of a 7-day test cycle. The parts were performed consecutively over 14 test days.
Challenge testing was accomplished using a mixed bacterial inoculum as the contamination event. These bacteria are Pseudomonas aeruginosa (ATCC #10145), Escherichia coli (ATCC #11229), Enterobacter aerogenes (ATCC #13048), and Alcaligenes faecalis (ATCC #25094). To prepare the test inoculum, each type of bacteria was harvested separately in nutrient broth. Just before use in the challenge test, equal strengths of each bacterial culture were mixed to obtain an inoculum of approximately 10^8 colony forming units per milliliter (cfu/mL).
After incubation, both control blanks and samples containing preservatives of interest were inoculated with the mixed inoculum to a final of 1.0 weight %. […]
Performance ratings of 0, 1, 2, 3 or 4 for each inoculated paint sample were determined by visual inspection of the streak lines, according to the definitions set forth below in Table 25.

Staphylococcus aureus = test: Minimum Inhibitory Concentration (MIC) by spiral plater / spiral gradient endpoint against Staphylococcus aureus; format: cell-based
[3] = aqueous calcium gluconate-BIT compositions, MassCG:MassBIT: Trials 1,2 0:1
[4] = aqueous calcium glycerate-BIT compositions, MassCGLY:MassBIT: Trials 1,2 0:1
[5] = zinc glycerate (without BIT), zinc glycerate-BIT series

For `CC(=O)[O-].CC(=O)[O-].[Zn+2]` [Zinc acetate], the “Observation (viscosity of conventional acrylic paint)” value (from here on “Observation”) [1] was “Paint gelled after mixing for” and the “Observation” value ([1]; listed as zinc acetate) was “caused the paint to gel”.

With `[Cl-].[Cl-].[Zn+2]` [Zinc chloride] the “Observation” value [1] was “Paint gelled immediately” and the “Observation” value ([1]; listed as zinc chloride) was “caused the paint to gel”.

For `O=C[O-].O=C[O-].[Zn+2]` [Zinc formate], the “Observation” value [1] was “Paint gelled immediately” and the “Observation” value ([1]; listed as zinc formate) was “caused the paint to gel”.

With calcium ethylhexanoate the QA (Alternaria alternata; quantity of calcium ethylhexanoate used alone that gives the desired effect (average of two trials), Alternaria alternata) was 7.5 ppm and the QA (Klebsiella pneumoniae) was 7.5 ppm.

For calcium gluconate, the “MIC (ppm) for Candida albicans” value (Candida albicans; [3]) was over 768 ppm, the “MIC (ppm) for Saccharomyces cervisiae” value (Saccharomyces cervisiae) was over 768 ppm and the “MIC (ppm) for Pseudomonas aeruginosa” value (Pseudomonas aeruginosa; [3]) was over 1127 ppm. For the same compound, the “MIC (ppm) for Pseudomonas aeruginosa” value (Pseudomonas aeruginosa; aqueous zinc gluconate-BIT compositions, MassZG:MassBIT: Trials 1,2 0:1) was over 2300 ppm.

In the case of calcium glycerate, the “MIC (ppm) for Alternaria alternata” value (Alternaria alternata; aqueous calcium glycerate-BIT compositions, MassCGLY:MassBIT: Trials 1,2 0:1, 3 1:3, 4,5 1:1, 6 3:1, 7,8 1:0) is reported as over 788 ppm, the “MIC (ppm) for Candida albicans” value (Candida albicans; [4]) is reported as over 768 ppm and the “MIC (ppm) for Pseudomonas aeruginosa” value (Pseudomonas aeruginosa; [4]) is reported as over 1230 ppm.

With zinc ethylhexanoate the QA (Alternaria alternata; MIC of zinc ethylhexanoate alone for Alternaria alternata, used for SI) was over 780 ppm, the “amount required to prevent growth of Alternaria alternata (MIC)” value (Alternaria alternata; zinc ethylhexanoate (without BIT), average of two trials) was over 780 ppm and the QA (Candida albicans; MIC of zinc ethylhexanoate alone for Candida albicans) was over 780 ppm.

For zinc gluconate, the QA (Escherichia coli) was 565 ppm, the “Performance Ratings Week 1, 1 Day” value ([2]; 5000 ppm in acrylic latex paint, Week 1, 1 Day after inoculation) was 4 and the “Performance Ratings Week 1, 2 Days” value ([2]; 5000 ppm in acrylic latex paint, Week 1, 2 Days after inoculation) was 4. The “Performance Ratings Week 1, 8 Days” value ([2]; 5000 ppm in acrylic latex paint, Week 1, 8 Days after inoculation) was 4, the “Performance Ratings Week 2, 1 Day” value ([2]; 5000 ppm in acrylic latex paint, Week 2, 1 Day after inoculation) was 4 and the “Performance Ratings Week 2, 2 Days” value ([2]; 5000 ppm in acrylic latex paint, Week 2, 2 Days after inoculation) was 4. The “Performance Ratings Week 2, 8 Days” value ([2]; 5000 ppm in acrylic latex paint, Week 2, 8 Days after inoculation) was 4 and the bacterial stability test ([2]; conventional latex paint with 5000 ppm of zinc gluconate added, mixed inoculum, two 7-day cycles) was “fails”.

For zinc glycerate, the QA (Alternaria alternata; MIC of zinc glycerate alone for Alternaria alternata, used for SI) was over 788 ppm, the “MIC for Alternaria alternata” value (Alternaria alternata; [5]) was over 768 ppm and the QA (Candida albicans; MIC of zinc glycerate alone for Candida albicans) was over 768 ppm. For the same compound, the “MIC for Candida albicans” value (Candida albicans; metal carboxylate without BIT, zinc ethylhexanoate-BIT series (Example 16, Table 31)) was over 780 ppm, the “MIC for Candida albicans” value (Candida albicans; [5]) was over 768 ppm and the QA (Staphylococcus aureus; MIC of zinc glycerate alone for Staphylococcus aureus, used for SI) was over 1283 ppm. For the same compound, the “MIC for Staphylococcus aureus” value (Staphylococcus aureus; [5]) was over 768 ppm.

Source: US20180332847A1, “ANTIMICROBIAL METAL CARBOXYLATE-BENZISOTHIAZOLINONE MIXTURES” (Troy Corporation, priority 2017, published 2018)
